Measured values reported in patent US20260085091A1, “PEPTIDES THAT SELECTIVELY BIND TO Trop2 AND USE THEREOF” (KYUNGPOOK NATIONAL UNIVERSITY INDUSTRY-ACADEMIC COOPERATION …, priority 2022, published 2026).
Primed or numbered codes have the meaning given here. Ends that are not written are not given here. FITC′ = not defined here

Legend:
[1] = system: KKU-213 cells; experiment: Flow cytometry binding of FITC-labeled peptide; type: cell-based, human
Description: (§1) A million cells were prepared, fixed with 4% PFA, and blocked with 1% BSA at RT for 30 min. The cells were reacted with mouse anti-Trop2 antibody at RT for 1 h with agitation. Then, cells were reacted with Alexa Fluor 488-labeled anti-mouse IgG antibody at RT for 1 h. For peptide binding, cells were reacted with FITC-labeling peptide at 4° C. for 1 h with agitation. The stained cells were fixed with 4% PFA before analysis with a flow cytometer.
(§2) To examine the binding of CSTLNVESC (SEQ ID NO: 1) peptide to cells, CSTLNVESC (SEQ ID NO: 1) peptide was tagged with FITC fluorescence dye at the carboxy terminus. […] In contrast, NSSSVDK-FITC control peptide weakly bound to both cell lines. Binding of CSTLNVESC (SEQ ID NO: 1)-FITC peptide, but not NSSSVDK-FITC peptide, to Trop2-expressing KKU-213 cells was also observed by immunofluorescence microscopic analysis (FIG. 5B).

[2] = system: Trop2-expressing KKU-213 cells; experiment: Immunofluorescence microscopic analysis of FITC-peptide binding; type: cell-based, human
Description: For co-localization assays, cells were reacted with FITC-conjugated peptide at 4° C. for 1 h and fixed with 4% PFA at RT for 10 min. Next, cells were reacted with mouse anti-Trop2 antibody at 4° C. overnight and then with Alexa Fluor 594-labeled anti-mouse IgG antibody (Thermo Fisher Scientific) at RT for 1 h. Cells were counter-stained with DAPI and enclosed with an anti-fade agent. The slides were examined using a confocal microscope.
as §2

[3] = system: Trop2-silenced KKU-213 cells; experiment: FITC-peptide binding after Trop2 silencing with siRNAs; type: cell-based, human; settings: KKU-213 transfected with Trop2 siRNAs for 24 h
Source text: To prepare Trop2-overexpressing cells for biopanning, pCMV6-AC-GFP plasmid including human Trop2 gene, tacstd2, (Origene, Rockville, MD, USA) was transfected into HEK293T cells using Lipofectamine 2000 (Thermo Fisher Scientific, Waltham, MA, USA). For Trop2 silencing, KKU-213 cells were transfected with a small-interfering RNA (siRNA) against Trop2 gene (Qiagen, Venlo, Netherlands) or control siRNA (Bioneer, Oakland, CA) using Lipofectamine RNAiMAX (Thermo Fisher Scientific). Two siRNAs, siTrop21 and siTrop22 have been designed specifically to target sequences; 5′-CCCGGGATCGTTTGCAAGTAA-3 (SEQ ID NO: 4)′ and 5′-TTGCGACATTGTGAAGGCTTA-3 (SEQ ID NO: 5)′. The silencing efficiencies were analyzed by Western blots.
For co-localization assays, cells were reacted with FITC-conjugated peptide at 4° C. for 1 h and fixed with 4% PFA at RT for 10 min. […]
To further examine whether the binding of CSTLNVESC (SEQ ID NO: 1)-FITC peptide to the Trop2-overexpressing cells was mediated by Trop2, Trop2 gene expression in KKU-213 cells was silenced using Trop2 siRNAs. Trop2 expression was reduced after transfection with Trop2 siRNAs for 24 h as determined by western blotting (FIG. 5C), immunofluorescence microscopy (FIG. 5D), and flow cytometry (FIG. 5E). […]

[4] = system: Trop2-overexpressing HEK293T cells; experiment: FITC-peptide cell binding (FIG. 6A); type: cell-based, human
[5] = system: Trop2-overexpressing MCF7 breast tumor cells; experiment: FITC-peptide cell binding (FIG. 6B); type: cell-based
[6] = system: HeLa cervical tumor cells; experiment: FITC-peptide cell binding (FIG. 6B); type: cell-based
[7] = system: H460 lung tumor cells; experiment: FITC-peptide cell binding (FIG. 6B); type: cell-based
[8] = system: KKU-055 cells; experiment: Cell binding affinity assay using the Ligand Tracer; design: species or system human
Description: To determine the cell binding affinity of CSTLNVESC (SEQ ID NO: 1) peptide, a binding assay using the Ligand Tracer was performed. The machine continuously monitored the CSTLNVESC (SEQ ID NO: 1)-FITC peptide binding to KKU-213 or KKU-055 cells that was dose and time-dependent.

[9] = system: KKU-213 subcutaneous tumor; experiment: Tumor homing assay (IVIS imaging)
Description: Four-week-old BALB/c female nude mice were purchased from Orient Bio (Seongnam, Republic of Korea). The mice were cared for and maintained in conformance with the Guidelines of the Institutional Animal Care and Use Committee (IACUC) of Kyungpook National University (permission no. 2017-0077). The mice were maintained in specific-pathogen free condition, controlled temperature (22±2° C.), humidity (50±10%), and light/dark cycle (12:12 h). Sterile tablet food, water and bedding were provided ad libitum. The mice were injected subcutaneously with approximately two million KKU-213 cells resuspended in 100 μl DMEM. When the tumor size reached 200 mm^3 after approximately 4 weeks, the mice were intravenously injected with near-infrared Flamma Fluor 675-labeled peptides. After 2 h, the signal was detected using the In Vivo Imaging System (IVIS) (PerkinElmer, Waltham, MA, USA). During the analysis the mice were anesthetized with 2.5% isoflurane in a gas chamber supplied with oxygen flowmeter 0.8 L/min. […] The frozen tissues were prepared for histological examination.
To examine the tumor homing of […] (SEQ ID NO: 1) peptide, the peptide was conjugated with Flamma 675 near-infrared dye and intravenously injected into mice bearing KKU-213 subcutaneous tumor.

[10] = system: KKU-213 tumor; experiment: Anti-tumor growth activity in tumor-bearing mice; type: in vivo; settings: 10 mg/kg intravenous, three times per week; versus control peptide-targeted R7-KLA or combined CSTLNVESC, R7, and KLA
Source text: (§3) To exploit the use of CSTLNVESC (SEQ ID NO: 1) peptide for targeted cancer therapy, a Trop2-targeted cytotoxic peptide consisting of CSTLNVESC (SEQ ID NO: 1), RRRRRRR (SEQ ID NO: 2) (R7), and KLAKLAKKLAKLAK (SEQ ID NO: 3) (KLA) peptides was synthesized and named CSTLNVESC (SEQ ID NO: 1)-R7-KLA. R7 is a well-known cell-penetrating peptide that enhances the internalization of peptides and proteins into cells. KLA is a cytotoxic peptide that may cause damage to mitochondrial membrane of mammalian cells when introduced into cells and induce cell death. CSTLNVESC (SEQ ID NO: 1)-R7-KLA was intravenously injected into mice bearing KKU-213 tumor (10 mg/kg, three times per week, FIG. 12A). CSTLNVESC (SEQ ID NO: 1)-targeted R7-KLA peptide reduced tumor volume (FIG. 12B) and tumor weight (FIG. 12C) more efficiently than the control peptide-targeted R7-KLA or combined treatment of CSTLNVESC (SEQ ID NO: 1), R7, and KLA.

[11] = Systemic side effects in treated tumor-bearing mice (body weight, blood markers); type: in vivo; settings: after treatment, 10 mg/kg intravenous three times per week
Source text: as §3

[12] = system: KKU-055 cells; experiment: Cytotoxicity of peptide in cholangiocarcinoma cell line; type: cell-based, human; settings: 24 h, concentration up to 256 μM
Description: (§4) To examine whether CSTLNVESC (SEQ ID NO: 1) peptide affects cell survival, KKU-213 and KKU-055 cells were reacted with the peptide for 24 h.

[13] = system: KKU-213 cells; experiment: as above; type: cell-based, human; settings: 24 h, concentration up to 256 μM
Description: as §4

[14] = Serum stability analysis by HPLC; type: in vitro ADME; settings: mouse serum, 37° C., 24 h incubation, declined thereafter
Description: CSTLNVESC (SEQ ID NO: 1) peptide was stable until 16 h and declined thereafter (FIG. 9).

[15] = system: KKU-213 cells; experiment: Transwell migration assay; type: cell-based, human; settings: dose-dependent
Description: (§5) Serum-starved KKU-213 cells were resuspended with serum-free medium containing peptide and added to the 8.0 μm pore polycarbonate insert of a Transwell chamber (Corning Life Sciences, Tewksbury, MA, USA). For the invasion assay, the membrane was coated with 0.3 μg Matrigel matrix (Corning Life Sciences) at 37° C. for 2 h before use. Serum-containing or serum-free medium was added to the reservoir and reacted at 37° C. overnight. The migrated or invaded cells were fixed and stained with 0.1% crystal violet solution at RT for 10 min. The stained cells were counted under a light microscope.
(§6) Trop2 is involved in EMT and metastasis, and to examine whether CSTLNVESC (SEQ ID NO: 1) peptide affects cell migration and invasion, trans-well chamber assays were performed.

[16] = system: KKU-213 cells; experiment: Transwell invasion assay (Matrigel); type: cell-based, human; settings: dose-dependent
Description: as §5, §6

[17] = system: KKU-055 cells; experiment: Flow cytometry binding of FITC-labeled peptide; type: cell-based, human
Description: as §1
as §2, with “CSTLNVESC” left out

[18] = biological target: T1, Trop2 (trophoblast antigen 2) expressed on human tumor cell lines (human, UniProt P09758 27-323); experiment: Ligand Tracer, real-time binding of FITC-peptide to KKU-213 cells
T1 construct: whole, on cells; Endogenous membrane glycoprotein; also called tacstd2; Trop2-positive KKU-213 cells
T1 sequence (looked up): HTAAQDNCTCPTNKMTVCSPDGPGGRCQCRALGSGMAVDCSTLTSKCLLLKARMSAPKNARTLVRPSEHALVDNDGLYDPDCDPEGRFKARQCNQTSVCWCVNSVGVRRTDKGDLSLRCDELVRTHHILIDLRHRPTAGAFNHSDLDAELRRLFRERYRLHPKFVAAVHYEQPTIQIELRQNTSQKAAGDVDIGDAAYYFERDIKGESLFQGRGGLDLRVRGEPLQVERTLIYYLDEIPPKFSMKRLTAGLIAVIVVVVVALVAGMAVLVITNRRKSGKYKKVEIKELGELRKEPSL
Description: To determine the cell binding affinity of […] (SEQ ID NO: 1) peptide, a binding assay using the Ligand Tracer was performed.

CSTLNVESC (SEQ ID NO: 1)-FITC (CSTLNVESC-{FITC′}; cysteine pairing not given here) [… peptide tagged with FITC fluorescence dye at the carboxy terminus]
binding to cells (flow cytometry) [1]: bound to KKU-213 cells at higher levels than to KKU-055 cells | binding to cells (immunofluorescence microscopy) [2]: observed | binding to Trop2-silenced cells [3]: reduced | binding to cells [4]: selectively bound | binding to cells [5]: selectively bound | binding to cells [6]: selectively bound | binding to cells [7]: selectively bound | binding (Ligand Tracer) [8]: hardly detected

CSTLNVESC (SEQ ID NO: 1)-Flamma 675: CSTLNVESC peptide conjugated with Flamma 675 near-infrared dye (cysteine pairing not given here; also: conjugated with Flamma 675 near-infrared dye, site not given here)
accumulation in tumor, ex vivo imaging and average photons in isolated organs ([9]; mouse, in vivo): accumulation | average photons in tumor ([9]; mouse, in vivo): higher than those of the control peptide | tumor homing, whole-body imaging ([9]; mouse, in vivo, iv): homed to tumor more efficiently than the control peptide

CSTLNVESC (SEQ ID NO: 1)-R7-KLA: Trop2-targeted cytotoxic peptide consisting of CSTLNVESC, RRRRRRR (R7), and KLAKLAKKLAKLAK (KLA) peptides (CSTLNVESCRRRRRRRKLAKLAKKLAKLAK)
tumor volume [10]: reduced | tumor weight [10]: reduced | level of kidney function marker BUN [11]: within normal ranges | level of kidney function marker creatinine [11]: within normal ranges | level of liver function enzyme ALP [11]: within normal ranges | level of liver function enzyme ALT [11]: within normal ranges | level of liver function enzyme AST [11]: within normal ranges

CSTLNVESC [CSTLNVESC (SEQ ID NO: 1)]
cytotoxicity [12]: No cytotoxicity | cytotoxicity [13]: No cytotoxicity | time until which peptide was stable in serum [14]: 16 h | serum-induced migration [15]: inhibited | serum-induced invasion [16]: inhibited | accumulation and co-localization with Trop2 in tumor tissues (immunofluorescence) ([9]; anti-Trop2 antibody staining of tumor tissue): accumulated and co-localized with Trop2 in tumor tissues | average photons in other organs, versus control peptide ([9]; isolated organs except kidney): similar

NSSSVDK-FITC: FITC-labeled NSSSVDK control peptide (also: FITC label, site not given here) [reference compound]
binding to cells (flow cytometry) [1]: weakly bound | binding to cells (flow cytometry) [17]: weakly bound

B1: CSTLNVESC (SEQ ID NO: 1)-FITC peptide (peptide)
peptide: CSTLNVESC-{FITC′}
modifications: cysteine pairing not given here
notes: Synthetic peptide (Fmoc), from a CX7C T7 phage library; also called FITC-conjugated peptide
Kd [18]: 5.21 µM
